Results as given in the supplement of paper PMC10307832.

Legend:
Assay in all cases: relative viability (nuclei count vs DMSO), 5 days (fraction); higher = more cells survive
NCI-H1651 = test system: NCI-H1651
How it was run: (§1)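 Dosing by pin tool came one day after lung cancer cell lines were seeded in 1536-well plates, using either one drug or a fixed anchor-drug dose plus five library-drug doses (not always all listed) in √10 steps. After 5 days, nuclei were counted on 4× images. Relative viability is treated-well nuclei count divided by vehicle-well nuclei count, and values are medians of duplicate plates.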

NCI-H460 = test system: NCI-H460
How it was run: as §1

NCI-H2170 = test system: NCI-H2170
How it was run: as §1

NCI-H1944 = test system: NCI-H1944
How it was run: as §1

RERF-LC-KJ = test system: RERF-LC-KJ
How it was run: as §1

ChaGo-K-1 = test system: ChaGo-K-1
How it was run: as §1

NCI-H2087 = test system: NCI-H2087
How it was run: as §1

NCI-H2405 = test system: NCI-H2405
How it was run: as §1

CAL-12T = test system: CAL-12T
How it was run: as §1

NCI-H1734 = test system: NCI-H1734
How it was run: as §1

LOU-NH91 = test system: LOU-NH91
How it was run: as §1

LU99A = test system: LU99A
How it was run: as §1

UMC-11 = test system: UMC-11
How it was run: as §1

PC-3 [JPC-3] = test system: PC-3 [JPC-3]
How it was run: as §1

ABC-1 = test system: ABC-1
How it was run: as §1

NCI-H3122 = test system: NCI-H3122
How it was run: as §1

HCC-78 = test system: HCC-78
How it was run: as §1

HCC-366 = test system: HCC-366
How it was run: as §1

NCI-H1395 = test system: NCI-H1395
How it was run: as §1

NCI-H2228 = test system: NCI-H2228
How it was run: as §1

EPLC-272H = test system: EPLC-272H
How it was run: as §1

LC-2-ad = test system: LC-2-ad
How it was run: as §1

NCI-H1755 = test system: NCI-H1755
How it was run: as §1

NCI-H1793 = test system: NCI-H1793
How it was run: as §1

With `COc1cc(N2CCC(C(N)=O)CC2)ccc1Nc1nc(N)c(Cl)c(Nc2ccccc2S(=O)(=O)C(C)C)n1` [HG-5-88-01] + COc1cccc2cc(-c3nc([C@H]4CC[C@H](C(=O)O)CC4)n4ncnc(N)c34)[nH]c12 [OSI-027] (partner 0.5 µM) the relative viability (NCI-H1651; first compound 0.04 µM) was 0.748, the relative viability (NCI-H1651; first compound 0.1265 µM) was 0.696 and the relative viability (NCI-H1651; first compound 0.4 µM) was 0.605. The relative viability (NCI-H1651; first compound 1.265 µM) was 0.627, the relative viability (NCI-H1651; first compound 4 µM) was 0.58 and the relative viability (NCI-H460; first compound 0.04 µM) was 0.604. It also gave a relative viability (NCI-H460; first compound 0.1265 µM) of 0.655, a relative viability (NCI-H460; first compound 0.4 µM) of 0.543 and a relative viability (NCI-H460; first compound 1.265 µM) of 0.344. For the same compound, the relative viability (NCI-H460; first compound 4 µM) was 0.287, the relative viability (NCI-H2170; first compound 0.04 µM) was 0.716 and the relative viability (NCI-H2170; first compound 0.1265 µM) was 0.764. For the same compound, the relative viability (NCI-H2170; first compound 0.4 µM) was 0.721, the relative viability (NCI-H2170; first compound 1.265 µM) was 0.238 and the relative viability (NCI-H2170; first compound 4 µM) was 0.601. For the same compound, the relative viability (NCI-H1944; first compound 0.04 µM) was 0.386, the relative viability (NCI-H1944; first compound 0.1265 µM) was 0.391 and the relative viability (NCI-H1944; first compound 0.4 µM) was 0.422. For the same compound, the relative viability (NCI-H1944; first compound 1.265 µM) was 0.297, the relative viability (NCI-H1944; first compound 4 µM) was 0.251 and the relative viability (RERF-LC-KJ; first compound 0.04 µM) was 0.637. For the same compound, the relative viability (RERF-LC-KJ; first compound 0.1265 µM) was 0.54, the relative viability (RERF-LC-KJ; first compound 0.4 µM) was 0.506 and the relative viability (RERF-LC-KJ; first compound 1.265 µM) was 0.345. The relative viability (RERF-LC-KJ; first compound 4 µM) was 0.308, the relative viability (ChaGo-K-1; first compound 0.04 µM) was 0.627 and the relative viability (ChaGo-K-1; first compound 0.1265 µM) was 0.649. It also gave a relative viability (ChaGo-K-1; first compound 0.4 µM) of 0.645, a relative viability (ChaGo-K-1; first compound 1.265 µM) of 0.605 and a relative viability (ChaGo-K-1; first compound 4 µM) of 0.47. It also gave a relative viability (NCI-H2087; first compound 0.04 µM) of 0.521, a relative viability (NCI-H2087; first compound 0.1265 µM) of 0.542 and a relative viability (NCI-H2087; first compound 0.4 µM) of 0.505. It also gave a relative viability (NCI-H2087; first compound 1.265 µM) of 0.349, a relative viability (NCI-H2087; first compound 4 µM) of 0.215 and a relative viability (NCI-H2405; first compound 0.04 µM) of 0.579. The relative viability (NCI-H2405; first compound 0.1265 µM) was 0.559, the relative viability (NCI-H2405; first compound 0.4 µM) was 0.539 and the relative viability (NCI-H2405; first compound 1.265 µM) was 0.343. For the same compound, the relative viability (NCI-H2405; first compound 4 µM) was 0.382, the relative viability (CAL-12T; first compound 0.04 µM) was 0.491 and the relative viability (CAL-12T; first compound 0.1265 µM) was 0.672. It also gave a relative viability (CAL-12T; first compound 0.4 µM) of 0.612, a relative viability (CAL-12T; first compound 1.265 µM) of 0.208 and a relative viability (CAL-12T; first compound 4 µM) of 0.173. It also gave a relative viability (NCI-H1734; first compound 0.04 µM) of 0.59, a relative viability (NCI-H1734; first compound 0.1265 µM) of 0.615 and a relative viability (NCI-H1734; first compound 0.4 µM) of 0.394. The relative viability (NCI-H1734; first compound 1.265 µM) was 0.399, the relative viability (NCI-H1734; first compound 4 µM) was 0.386 and the relative viability (LOU-NH91; first compound 0.04 µM) was 0.602. The relative viability (LOU-NH91; first compound 0.1265 µM) was 0.635, the relative viability (LOU-NH91; first compound 0.4 µM) was 0.615 and the relative viability (LOU-NH91; first compound 1.265 µM) was 0.442. The relative viability (LOU-NH91; first compound 4 µM) was 0.451, the relative viability (LU99A; first compound 0.04 µM) was 0.245 and the relative viability (LU99A; first compound 0.1265 µM) was 0.316. For the same compound, the relative viability (LU99A; first compound 0.4 µM) was 0.286, the relative viability (LU99A; first compound 1.265 µM) was 0.279 and the relative viability (LU99A; first compound 4 µM) was 0.263. It also gave a relative viability (UMC-11; first compound 0.04 µM) of 0.347, a relative viability (UMC-11; first compound 0.1265 µM) of 0.521 and a relative viability (UMC-11; first compound 1.265 µM) of 0.464. The relative viability (UMC-11; first compound 4 µM) was 0.334, the relative viability (PC-3 [JPC-3]; first compound 0.04 µM) was 0.701 and the relative viability (PC-3 [JPC-3]; first compound 0.1265 µM) was 0.759. The relative viability (PC-3 [JPC-3]; first compound 0.4 µM) was 0.721, the relative viability (PC-3 [JPC-3]; first compound 1.265 µM) was 0.543 and the relative viability (PC-3 [JPC-3]; first compound 4 µM) was 0.577. For the same compound, the relative viability (ABC-1; first compound 0.04 µM) was 0.468, the relative viability (ABC-1; first compound 0.1265 µM) was 0.428 and the relative viability (ABC-1; first compound 0.4 µM) was 0.399. The relative viability (ABC-1; first compound 1.265 µM) was 0.348, the relative viability (ABC-1; first compound 4 µM) was 0.293 and the relative viability (NCI-H3122; first compound 0.04 µM) was 0.226. The relative viability (NCI-H3122; first compound 0.1265 µM) was 0.213, the relative viability (NCI-H3122; first compound 0.4 µM) was 0.114 and the relative viability (NCI-H3122; first compound 1.265 µM) was 0.149. For the same compound, the relative viability (NCI-H3122; first compound 4 µM) was 0.129, the relative viability (HCC-78; first compound 0.04 µM) was 0.359 and the relative viability (HCC-78; first compound 0.1265 µM) was 0.293. For the same compound, the relative viability (HCC-78; first compound 0.4 µM) was 0.349, the relative viability (HCC-78; first compound 1.265 µM) was 0.27 and the relative viability (HCC-78; first compound 4 µM) was 0.301. For the same compound, the relative viability (HCC-366; first compound 0.04 µM) was 1.02, the relative viability (HCC-366; first compound 0.1265 µM) was 0.941 and the relative viability (HCC-366; first compound 0.4 µM) was 1.02. The relative viability (HCC-366; first compound 1.265 µM) was 0.577, the relative viability (HCC-366; first compound 4 µM) was 0.6 and the relative viability (NCI-H1395; first compound 0.04 µM) was 0.583. The relative viability (NCI-H1395; first compound 0.1265 µM) was 0.66, the relative viability (NCI-H1395; first compound 0.4 µM) was 0.638 and the relative viability (NCI-H1395; first compound 1.265 µM) was 0.646. It also gave a relative viability (NCI-H1395; first compound 4 µM) of 0.631, a relative viability (NCI-H2228; first compound 0.04 µM) of 0.241 and a relative viability (NCI-H2228; first compound 0.1265 µM) of 0.148. The relative viability (NCI-H2228; first compound 0.4 µM) was 0.181, the relative viability (NCI-H2228; first compound 1.265 µM) was 0.169 and the relative viability (NCI-H2228; first compound 4 µM) was 0.172. It also gave a relative viability (EPLC-272H; first compound 0.04 µM) of 0.31, a relative viability (EPLC-272H; first compound 0.1265 µM) of 0.278 and a relative viability (EPLC-272H; first compound 0.4 µM) of 0.294. The relative viability (EPLC-272H; first compound 1.265 µM) was 0.242, the relative viability (EPLC-272H; first compound 4 µM) was 0.0931 and the relative viability (LC-2-ad; first compound 0.04 µM) was 0.819. The relative viability (LC-2-ad; first compound 0.1265 µM) was 0.944, the relative viability (LC-2-ad; first compound 0.4 µM) was 0.826 and the relative viability (LC-2-ad; first compound 1.265 µM) was 0.558. For the same compound, the relative viability (LC-2-ad; first compound 4 µM) was 0.416, the relative viability (NCI-H1755; first compound 0.04 µM) was 0.722 and the relative viability (NCI-H1755; first compound 0.1265 µM) was 0.731. For the same compound, the relative viability (NCI-H1755; first compound 0.4 µM) was 0.677, the relative viability (NCI-H1755; first compound 1.265 µM) was 0.686 and the relative viability (NCI-H1755; first compound 4 µM) was 0.434. The relative viability (NCI-H1793; first compound 0.1265 µM) was 0.269, the relative viability (NCI-H1793; first compound 0.4 µM) was 0.236 and the relative viability (NCI-H1793; first compound 4 µM) was 0.177.
